Assay results: patent US20260364184A1, “COMPOUND BASED ON OXOISOINDOLINYL-SUBSTITUTED TETRAHYDROPYRIMIDINE-DIONE AND USE THEREOF” (GLUETACS THERAPEUTICS (SHANGHAI) CO., LTD., priority 2023, published 2026)
Values belong to the compound of their own block, whether it stands above or below them.

Columns and labels:
Type in all cases: cell-based
[1] = system: Human T lymphocytic leukemia cell line (Jurkat); experiment: Inhibition of Jurkat cell proliferation (CellTiter luminescent viability); conditions: 96 hours; for IC50: Table IA1, IRAK4 inhibitor-based, read-out: Inhibitory activity (IC50, nM) on tumor cell proliferation, Jurkat; for inhibition at 0.01 µM / inhibition at 0.5 µM: Homo sapiens, Table IF3, AR inhibitor-based; for inhibition at 0.01 µM: 10 nM, read-out: Inhibition Rate at 10 nM (%); for inhibition at 0.5 µM: 500 nM, read-out: Inhibition Rate at 500 nM (%)
[2] = system: Human Multiple myeloma cell line (MM.1S); experiment: Inhibition of MM.1S cell proliferation (CellTiter luminescent viability); conditions: 96 hours; for IC50: Table IA1, IRAK4 inhibitor-based, read-out: Inhibitory activity (IC50, nM) on tumor cell proliferation, MM.1S; for inhibition at 0.01 µM / inhibition at 0.5 µM: Homo sapiens, MM1.S, Table IA5, IRAK4 inhibitor-based; for inhibition at 0.01 µM: 10 nM, read-out: Inhibition Rate at 10 nM (%); for inhibition at 0.5 µM: 500 nM, read-out: Inhibition Rate at 500 nM (%)
Outline: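 Cells are seeded in 96-well plates, cultured at 37 °C, 5% CO2, and treated next day with 5-fold serial compound dilutions (stock series from 2000 μM; 0.5 μL into 100 μL medium). Viability is read by CellTiter-Meiluncell luminescence after the set exposure, and IC50 is taken from growth-inhibition curves.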

[3] = molecular target: T1, AR (Homo sapiens, UniProt P10275); experiment: Western blot degradation of AR; conditions: LnCap Cell; 24 hours
T1 construct: expression of target proteins in cells; endogenous in cells
T1 sequence (P10275 1-920): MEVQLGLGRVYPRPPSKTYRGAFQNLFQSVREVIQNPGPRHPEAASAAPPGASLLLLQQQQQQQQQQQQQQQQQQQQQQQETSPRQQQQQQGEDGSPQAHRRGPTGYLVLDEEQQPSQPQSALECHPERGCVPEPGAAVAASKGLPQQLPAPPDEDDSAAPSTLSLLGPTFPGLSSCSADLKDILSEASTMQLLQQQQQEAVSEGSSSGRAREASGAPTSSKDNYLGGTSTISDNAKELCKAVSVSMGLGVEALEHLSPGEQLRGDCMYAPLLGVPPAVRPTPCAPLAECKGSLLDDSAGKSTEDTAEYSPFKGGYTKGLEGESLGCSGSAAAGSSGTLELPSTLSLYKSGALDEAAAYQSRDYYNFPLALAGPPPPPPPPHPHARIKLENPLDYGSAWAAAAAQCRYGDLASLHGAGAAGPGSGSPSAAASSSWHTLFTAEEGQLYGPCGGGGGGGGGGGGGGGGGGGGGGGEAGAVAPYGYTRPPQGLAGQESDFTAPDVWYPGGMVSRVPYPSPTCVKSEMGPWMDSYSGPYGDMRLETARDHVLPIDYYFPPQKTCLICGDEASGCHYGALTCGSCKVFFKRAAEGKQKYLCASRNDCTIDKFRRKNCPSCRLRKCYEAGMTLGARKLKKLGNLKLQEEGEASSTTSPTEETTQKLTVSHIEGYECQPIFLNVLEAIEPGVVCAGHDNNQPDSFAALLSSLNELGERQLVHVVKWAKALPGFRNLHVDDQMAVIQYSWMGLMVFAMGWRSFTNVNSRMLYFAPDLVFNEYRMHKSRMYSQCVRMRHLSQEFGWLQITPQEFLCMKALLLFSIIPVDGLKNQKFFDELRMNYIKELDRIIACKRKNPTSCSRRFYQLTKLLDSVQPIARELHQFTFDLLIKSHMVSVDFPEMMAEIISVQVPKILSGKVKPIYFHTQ
Outline: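 Cells treated with compound, lysed, and target protein detected by Western blot (SDS-PAGE, nitrocellulose transfer). DC50 taken as the concentration giving band grayscale half that of DMSO control, estimated by concentration-response fitting; remaining protein (%) from target band normalised to internal control band; degradation (%) = 1 − remaining.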

[4] = Inhibition of RPMI-8226 cell proliferation (CellTiter luminescent viability); conditions: Homo sapiens; Table IA4, IRAK4 inhibitor-based; RPMI-8226, 10 nM, 96 hours; read-out: Inhibition Rate at 10 nM (%)
[5] = system: Human B-Cell Lymphoma Cells (RPMI-8226); experiment: as above; conditions: Table IA4, IRAK4 inhibitor-based, RPMI-8226, 500 nM, 96 hours, read-out: Inhibition Rate at 500 nM (%)

Compound: CC(C)(O)c1cc2nc(C3CCN(Cc4ccc5c(c4)CN(N4CCC(=O)NC4=O)C5=O)CC3)oc2cc1NC(=O)c1cccc(C(F)(F)F)n1 [GT-05748, N-(2-(1-((2-(2,4-dioxotetrahydropyrimidin-1(2H)-yl)-1-oxoisoindolin-5-yl)methyl)piperidin-4-yl)-5-(2-hydroxypropan-2-yl)benzo[d]oxazol-6-yl)-6-(trifluoromethyl) picolinamide]
- inhibition at 0.01 µM [4]: 30 to 40%
- inhibition at 0.5 µM [5]: 15 to 20%

Compound: O=C1CCN(N2Cc3cc(CN4CCC(n5cc(NC(=O)c6cnn7ccc(N8CCOCC8)nc67)c(C(F)F)n5)CC4)ccc3C2=O)C(=O)N1 [GT-05749]
- inhibition at 0.01 µM [2]: 20 to 25%
- inhibition at 0.5 µM [2]: 80 to 100%
- inhibition at 0.01 µM [4]: 25 to 30%
- inhibition at 0.5 µM [5]: 15 to 20%

Compound: O=C1CCN(N2C(=O)c3cccc(N4CCC(CN5CCC(n6cc(NC(=O)c7cnn8ccc(N9C[C@H]%10C[C@@H]9CO%10)nc78)c(C(F)F)n6)CC5)CC4)c3C2=O)C(=O)N1 [GT-05285, 5-((1R,4R)-2-oxa-5-azabicyclo[2.2.1]heptan-5-yl)-N-(3-(difluoromethyl)-1-(1-((1-(2-(2,4-dioxotetrahydropyrimidin-1(2H)-yl)-1,3-dioxoisoindolin-4-yl)piperidin-4-yl)methyl)piperidin-4-yl)-1H-pyrazol-4-yl)pyrazolo[1,5-a]pyrimidine-3-carboxamide]
- inhibition at 0.01 µM [2]: 40 to 60%
- inhibition at 0.5 µM [2]: 60 to 80%
- inhibition at 0.01 µM [4]: 30 to 40%
- inhibition at 0.5 µM [5]: 25 to 30%

Compound: O=C1CCN(N2C(=O)c3ccc(N4C5CC4CN(C[C@H]4CC[C@H](n6cc(NC(=O)c7cnn8ccc(N9C[C@H]%10C[C@@H]9CO%10)nc78)c(C(F)F)n6)CC4)C5)cc3C2=O)C(=O)N1 [GT-05242, 5-((1R,4R)-2-oxa-5-azabicyclo[2.2.1]heptan-5-yl)-N-(3-(difluoromethyl)-1-((1r,4R)-4-((6-(2-(2,4-dioxotetrahydropyrimidin-1(2H)-yl)-1,3-dioxoisoindolin-5-yl)-3,6-diazabicyclo[3.1.1]heptan-3-yl)methyl)cyclohexyl)-1H-pyrazol-4-yl)pyrazolo[1,5-a]pyrimidine-3-carboxamide]
- inhibition at 0.01 µM [4]: 20 to 25%
- inhibition at 0.5 µM [5]: 30 to 40%

Continued, in another order:

- IC50 [1]: 100 to 300 nM
- IC50 [2]: 10 to 50 nM
Compound: O=C1CCN(N2Cc3cc(CN4CCC(n5cc(NC(=O)c6coc(-c7ccnc(NCC8CC8)c7)n6)c(C(F)F)n5)CC4)ccc3C2=O)C(=O)N1 [GT-04951, 2-(2-((cyclopropylmethyl)amino)pyridin-4-yl)-N-(3-(difluoromethyl)-1-(1-((2-(2,4-dioxotetrahydropyrimidin-1(2H)-yl)-1-oxoisoindolin-5-yl)methyl)piperidin-4-yl)-1H-pyrazol-4-yl) oxazole-4-carboxamide]

- IC50 [1]: 100 to 300 nM
- IC50 [2]: 10 to 50 nM
Compound: O=C1CCN(N2Cc3cc(CN4CCC(n5cc(NC(=O)c6cnn7ccc(N8C[C@H]9C[C@@H]8CO9)nc67)c(C(F)F)n5)CC4)ccc3C2=O)C(=O)N1 [GT-05028, 5-((1R,4R)-2-oxa-5-azabicyclo[2.2.1]heptan-5-yl)-N-(3-(difluoromethyl)-1-(1-((2-(2,4-dioxotetrahydropyrimidin-1(2H)-yl)-1-oxoisoindolin-5-yl)methyl)piperidin-4-yl)-1H-pyrazol-4-yl)pyrazolo[1,5-a]pyrimidine-3-carboxamide]

- Degradation of substrate protein AR (substrate protein remaining %) [3]: A (0%≤substrate protein remaining %≤80%)
Compound: N#Cc1ccc(O[C@H]2CC[C@H](NC(=O)c3ccc(N4CCC(CN5C[C@@H]6C[C@H]5CN6c5ccc6c(c5)C(=O)N(N5CCC(=O)NC5=O)C6=O)CC4)nn3)CC2)cc1Cl [GT-05226, N-((1r,4r)-4-(3-chloro-4-cyanophenoxy)cyclohexyl)-6-(4-(((1S,4S)-5-(2-(2,4-dioxotetrahydropyrimidin-1(2H)-yl)-1,3-dioxoisoindolin-5-yl)-2,5-diazabicyclo[2.2.1]heptan-2-yl)methyl)piperidin-1-yl)pyridazine-3-carboxamide]

- Degradation of substrate protein AR (substrate protein remaining %) [3]: A (0%≤substrate protein remaining %≤80%)
Compound: N#Cc1ccc(O[C@H]2CC[C@H](NC(=O)c3ccc(N4CCC(CN5CC6CCC5CN6c5ccc6c(c5)C(=O)N(N5CCC(=O)NC5=O)C6=O)CC4)nn3)CC2)cc1Cl (some centres unmarked) [GT-05832, N-((1r,4r)-4-(3-chloro-4-cyanophenoxy)cyclohexyl)-6-(4-((5-(2-(2,4-dioxotetrahydropyrimidin-1(2H)-yl)-1,3-dioxoisoindolin-5-yl)-2,5-diazabicyclo[2.2.2]octan-2-yl)methyl)piperidin-1-yl)pyridazine-3-carboxamide]
- inhibition at 0.01 µM [1]: 0 to 5%
- inhibition at 0.5 µM [1]: 20 to 30%

- Degradation of substrate protein AR (substrate protein remaining %) [3]: A (0%≤substrate protein remaining %≤80%)
Compound: CC1(C)[C@H](NC(=O)c2ccc(N3CCC(CN4CC5CCC4CN5c4ccc5c(c4)C(=O)N(N4CCC(=O)NC4=O)C5=O)CC3)nc2)C(C)(C)[C@H]1Oc1ccc(C#N)c(Cl)c1 (some centres unmarked) [GT-05834, N-((1r,3r)-3-(3-chloro-4-cyanophenoxy)-2,2,4,4-tetramethylcyclobutyl)-6-(4-((5-(2-(2,4-dioxotetrahydropyrimidin-1(2H)-yl)-1,3-dioxoisoindolin-5-yl)-2,5-diazabicyclo[2.2.2]octan-2-yl)methyl)piperidin-1-yl)nicotinamide]
- inhibition at 0.01 µM [1]: 15 to 20%
- inhibition at 0.5 µM [1]: 40 to 60%
